This note sets out measurements from US12534429B2, “Heterodimers of glutamic acid” (Molecular Insight Pharmaceuticals, Inc., priority 2006, dated 2026).

Data set [1] is described as follows: Microsome assay (stability in rat liver microsomes). The format is in vitro ADME. The conditions noted are these: 37° C., 60 min incubation; MIP-1072 50 μM, phenacetin 100 μM. On the procedure:
Pooled male rat liver microsomes (1 mg/mL, BD Biosciences), NADPH regenerating system (1.3 mM NADP, 3.3 mM glucose 6-phosphate and 0.4 U/mL glucose 6-phosphate dehydrogenase, BD Biosciences) and test compound (50 μM MIP-1072, 50 μM DCT, and 100 μM phenacetin) were added to 0.1 M potassium phosphate buffer (pH 7.4) in order to monitor the catastrophic degradation of the test compounds. The mixture was incubated at 37° C. and at the indicated time (0, 15, 60 min) the reaction was stopped by the addition of an equal volume of ice cold methanol (500 μL). The resulting slurry was then centrifuged at 21,000×G for 10 min and the supernatant was collected and injected onto an Agilent LCMS model MSD SL using a 95:5 water:acetonitrile (with 0.1% formic acid) to 40:60 water:acetonitrile (with 0.1% formic acid) gradient and monitoring for the parent ion only in single ion mode. The results, shown in FIGS. 11A and 11B, are expressed as degradation of the parent ion with respect to the 0 min time point.
The stability of MIP-1072 was assessed using rat liver microsomes. MIP-1072 (50 μM) and Phenacetin (100 μM) were incubated with rat liver microsomes at 37° C. for the indicated time. Phenacetin was used as a control substance that is known to be metabolized. MIP-1072 was not degraded by the rat liver microsomes during the incubation period. […]

Data set [2] has as its system LNCaP (PSMA positive) tumors. The data set can be described thus: Tissue biodistribution of I-131 MIP 1072 in xenograft tumored mice, LNCaP tumors. Type of data set: in vivo. The conditions noted are these: I-131-labeled. The source says: (§1) The lead compound, MIP 1072, was I-131-labeled for tissue distribution studies in mice with both LNCaP (PSMA positive) and PC3 (PSMA negative) tumors implanted. The compound was radiolabeled by the route shown below.
(§2) A graph depicting the mice distribution is shown below (FIG. 12).

Data set [3] concerns PC3 (PSMA negative) tumors. The experiment in a line: Tissue biodistribution of I-131 MIP 1072 in xenograft tumored mice, PC3 tumors. The conditions noted are these: I-131-labeled. The format is in vivo.
Description: as §1, §2

The target of data set [4] is T1, PSMA on LNCaP cells (Homo sapiens, UniProt Q04609).
T1 construct: LNCaP human prostate cancer cells were obtained from American Type Culture Collection; host or cells: LNCaP human prostate cancer cells
T1 sequence (Q04609 whole entry): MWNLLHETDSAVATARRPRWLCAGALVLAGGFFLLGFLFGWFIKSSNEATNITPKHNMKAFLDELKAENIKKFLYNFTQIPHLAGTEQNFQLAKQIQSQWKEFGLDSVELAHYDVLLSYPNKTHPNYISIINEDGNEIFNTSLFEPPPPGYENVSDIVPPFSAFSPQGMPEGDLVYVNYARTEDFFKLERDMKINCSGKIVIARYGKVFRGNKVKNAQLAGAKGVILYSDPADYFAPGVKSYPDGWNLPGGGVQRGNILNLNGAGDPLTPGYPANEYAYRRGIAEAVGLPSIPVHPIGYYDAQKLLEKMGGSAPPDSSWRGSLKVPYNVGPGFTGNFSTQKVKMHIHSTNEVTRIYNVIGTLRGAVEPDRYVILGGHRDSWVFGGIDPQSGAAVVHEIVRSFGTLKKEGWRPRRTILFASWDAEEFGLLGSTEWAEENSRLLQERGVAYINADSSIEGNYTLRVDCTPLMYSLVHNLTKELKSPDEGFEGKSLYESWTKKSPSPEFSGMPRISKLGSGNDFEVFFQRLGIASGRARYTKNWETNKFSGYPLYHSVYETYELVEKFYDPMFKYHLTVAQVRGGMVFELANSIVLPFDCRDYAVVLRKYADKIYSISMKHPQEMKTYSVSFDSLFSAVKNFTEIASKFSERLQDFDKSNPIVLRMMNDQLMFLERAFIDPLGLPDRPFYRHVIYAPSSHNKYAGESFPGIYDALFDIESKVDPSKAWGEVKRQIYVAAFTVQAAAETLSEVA
The experiment in a line: Saturation binding analysis of radiolabeled MIP-1072 in LNCaP cells. Here is the method:
The affinity constant (Kd) of MIP-1072 was determined by saturation binding analysis (FIG. 18). LNCaP cells were incubated for 1 hour with 30-100,000 pM ^131I-MIP-1072 in HBS (50 mM Hepes, pH 7.5, 0.9% sodium chloride) at either 4° C. or 37° C. in the absence or presence of 10 μM unlabeled MIP-1072 (to determine non-specific binding). Cells were then washed and the amount of radioactivity was measured on a gamma counter. Specific binding was calculated as the difference between total binding and nonspecific binding. […] The Bmax, however, was greater at 37° C. than at 4° C.; […] fmol/10^6 cells, respectively, indicating internalization of MIP-1072. The results below are representative of two independent analyses.

The test system of the next data set is LnCap cells. The experiment in a line: Rate of uptake and internalization (acid wash assay) of MIP-1072 in LNCaP cells. Type of data set: cell-based, human. The conditions noted are these: 100 nM; for internalization in LNCaP cells: 4° C. and 37° C. Here is the method: In order to confirm the results of the Scatchard analysis of FIG. 7 indicating MIP-1072 internalization into LNCaP cells, the rate of uptake of MIP-1072 in LNCaP cells was monitored. Each well was dosed with 100 nM MIP-1072 (2 uCi/well) at 4° C. and 37° C. Binding to PSMA reached equilibrium after 15 min as evidenced by the plateau in the curve at 4° C. The cells incubated at 37° C. continued to internalize MIP-1072 after equilibrium had been reached.
The ability of MIP-1072 to internalize in LNCaP cells was confirmed by an acid wash assay (FIG. 19). LNCaP cells were incubated in HBS with 100 nM ^123I-MIP-1072 for 0-2 hours at 4 and 37° C. At the indicated time the media was removed and the cells were incubated in mild acid buffer (50 mM glycine, 150 mM NaCl, pH 3.0) at 4° C. for 5 minutes. After the brief incubation the cells were centrifuged at 20,000×g for 5 minutes. The supernatant and cell pellet were counted in a gamma counter. In order to confirm the results of the saturation binding analysis indicating MIP-1072 internalization into LNCaP cells, we monitored the rate of uptake of MIP-1072 in LNCaP cells. Each well was dosed with 100 nM MIP-1072 (2 uCi/well) at 4° C. and 37° C. Binding to PSMA reached equilibrium after 15 min as evidenced by the plateau in the curve at 4° C. The cells incubated at 37° C. continued to internalize MIP-1072 after equilibrium had been reached. […] (FIG. 19).

The target of data set [5] is T1, PSMA on LNCaP cells. The experiment in a line: In vitro cell binding: competition with I-131 DCIT for binding to PSMA on LNCaP cells. The conditions noted are these: LnCap cells, dose curves; read-out: IC50 values versus I-131 DCIT. On the procedure: In vitro cold screening assays verses I-131 DCIT. LNCaP and PC3 human prostate cancer cells were obtained from American Type Culture Collection, Rockville, MD LNCaP cells were maintained in RPMI-1640 medium supplemented with 10% fetal bovine serum (FBS). PC3 cells were grown in F12K medium supplemented with 10% FBS. Binding of the radiolabeled compound and competition with cold derivatives to LNCaP and PC-3 cells was performed according to the methods of Tang et al. (Tang, H.; Brown, M.; Ye, Y.; Huang, G.; Zhang, Y.; Wang, Y.; Zhai, H.; Chen, X.; Shen, T. Y.; Tenniswood, M., Prostate targeting ligands based on N-acetylated alpha-linked acidic dipeptidase, Biochem. Biophys. Res. Commun. 2003, 307, 8-14) with appropriate modifications. Cells were plated in 12-well plates at approximately 4×10^5 cells/well and incubated for 48 hours in a humidified incubator at 37° C./5% carbon dioxide prior to addition of compound. Each unique SAAC-urea-Glu conjugate was prepared and diluted in serum-free cell culture medium containing 0.5% bovine serum albumin (BSA) in combination with 3 nM I-131 DCIT (known inhibitor). Total binding was determined by incubating I-131 DCIT without test compound. Plates were incubated at room temperature for 1 hour. Cells were removed from the plates by gently pipeting and transferred to eppendorff tubes. Samples were microcentrifuged for 15 seconds at 10K×g. The medium was aspirated and the pellet was washed twice by dispersal in fresh assay medium followed by microcentrifugation. Cell binding of I-131 DCIT was determined by counting the cell pellet in an automated gamma counter. […] The control compounds are depicted below.
The ability of non-radioactive analogs to compete with ^131I-DCIT for binding to PSMA was tested in the PSMA positive human prostate cancer cell line, LNCaP cells. LNCaP cells (300,000 cells/well) were incubated for 1 hour with 3 nM [^131I]-DCIT in the presence of 1-10,000 nM MIP-1072 in RPMI-1640 medium supplemented with 0.5% bovine serum albumin, then washed and counted in a gamma counter. All documents cited in this specification including patent applications are incorporated by reference in their entirety.

Data set [6] relates to PSMA positive LNCaP xenografts. Type of data set: in vivo, male NCr Nude mice. Here is the method:
Tissue biodistribution of I^23I-MIP-1072 (2 μCi/mouse, >1,000 mCi/μmole) was assessed in selected tissues from LNCaP (PSMA positive) tumor bearing nude mice. Results are expressed as the percent of the injected dose per gram of the selected tissues (% ID/g).
(§3) FIG. 21 Uptake of ^23I-MIP-1072 in LNCaP and PC3 xenograft bearing mice.
(§4) A quantitative analysis of the tissue distribution of ^123I-MIP-1072 was performed in separate groups of male NCr Nude^−/− mice bearing PSMA positive LNCaP xenografts (approximately 100-200 mm^3) administered via the tail vein as a bolus injection (approximately 2 μCi/mouse) in a constant volume of 0.05 ml. The animals (n=5/time point) were euthanized by asphyxiation with carbon dioxide at 0.25, 1, 2, 4, 8, and 24 hours post injection. Tissues (blood, heart, lungs, liver, spleen, kidneys, adrenals, stomach, large and small intestines (with contents), testes, skeletal muscle, bone, brain, adipose, and tumor) were dissected, excised, weighed wet, transferred to plastic tubes and counted in an automated γ-counter (LKB Model 1282, Wallac Oy, Finland). […] MIP-1072, uptake and exposure was greatest in the kidney and LNCaP xenograft which express high levels of PSMA. Peak uptake in the kidney was 158±46% ID/g at 2 hours and the LNCaP xenograft was 17±6% ID/g at 1 hours (FIG. 20).

Data set [7] concerns PC3 tumors which do not express PSMA. The experiment in a line: Tumor uptake of 123I-MIP-1072 in PC3 xenograft bearing mice. Type of data set: in vivo, male NCr Nude mice. The conditions noted are these: 1 hour post injection. Here is the method: as §3, §4

As to `CCOc1ccc(NC(C)=O)cc1` [phenacetin, reference compound], the “degradation of the parent by rat liver microsomes” value in data set [1] is 22%.

Consider `O=C(O)CC[C@H](NC(=O)N[C@@H](CCCCNCc1ccc(I)cc1)C(=O)O)C(=O)O` [MIP 1072, (S, S)-2-{3-[1-Carboxy-5-(4-iodo-benzylamino)-pentyl]-ureido}-pentanedioic], for which, in data set [2], the “uptake in LNCaP (PSMA positive) tumors” value was “significant uptake”. In addition, in data set [3], the “activity in PC3 (PSMA negative) tumors” value was “very little activity”. Besides, in data set [1], the “degradation of the parent by rat liver microsomes” value is on record as “not degraded”. Further, the Bmax on PSMA on LNCaP cells [4] (4° C.) is recorded as 1,490 fmoles/10^6 cells; on PSMA on LNCaP cells [4] (37° C.), 4,400 fmol/10^6 cells. Moreover, the Kd is 4.8 nM at PSMA on LNCaP cells [4] (4° C., nonlinear regression) and 8.1 nM at PSMA on LNCaP cells [4] (37° C.). Further, the “internalization in LNCaP cells” value in the data set with LnCap cells was “internalized”. Further, the “time at which binding to PSMA reached equilibrium” value in the data set on LnCap cells (4° C., LNCaP cells) came to 15 min. In addition, the IC50 on PSMA on LNCaP cells [5] was under 50 nM.

As for `O=C(O)CC[C@H](NC(=O)N[C@@H](CCCCNCc1ccc([123I])cc1)C(=O)O)C(=O)O` [123I-MIP-1072], the “tumor and kidney uptake after pretreatment with PMPA” value in data set [6] (50 mg/kg PMPA 5 minutes prior to injection, 1 hour post injection) was “blocked”. Moreover, in data set [6] (1 hour post injection), the “localization to PSMA expressing LNCaP tumors” value is given as “localization to PSMA expressing LNCaP tumors”. The “peak uptake in the LNCaP xenograft” value in data set [6] (at 1 hours post injection, tail vein bolus) turned out to be 17±6 % ID/g. For the same molecule, the “internalization in LNCaP cells” value in the data set with LnCap cells was “internalized at 37 °C but not at 4 °C”. In data set [7], the “localization to PC3 tumors” value was “not PC3 tumors”.
